Results taken from ChEMBL document CHEMBL1201862, “PubChem BioAssay data set” (2004).
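Assay format: 96-well plates, 48-hour exposure. GI50: concentration for 50% inhibition of growth.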 The source made the active and inactive calls. No stated cut-off is given here; in the data, active = GI50 up to about 1.1 µM and inactive = higher.

Assays:
Experiment in all cases: inhibition of tumour cell growth, NCI panel, 48 h
HT-29 = tested on: HT-29
SK-MEL-2 = tested on: SK-MEL-2
HCT-15 = tested on: HCT-15
MOLT-4 = tested on: MOLT-4
Hs-578T = tested on: Hs-578T
HCT-116 = tested on: HCT-116
OVCAR-4 = tested on: OVCAR-4
NCI/ADR-RES = tested on: NCI/ADR-RES
Malme-3M = tested on: Malme-3M
HOP-62 = tested on: HOP-62
MCF7 = tested on: MCF7
CAKI-1 = tested on: CAKI-1
SNB-19 = tested on: SNB-19
SW-620 = tested on: SW-620
COLO 205 = tested on: COLO 205
U-251 = tested on: U-251
EKVX = tested on: EKVX
KM12 = tested on: KM12
A498 = tested on: A498
SNB-75 = tested on: SNB-75
NCI-H522 = tested on: NCI-H522
A549 = tested on: A549
SR = tested on: SR
BT-549 = tested on: BT-549
SN12C = tested on: SN12C
LOX IMVI = tested on: LOX IMVI
SF-295 = tested on: SF-295
HL-60 = tested on: HL-60
SK-OV-3 = tested on: SK-OV-3
CCRF-CEM = tested on: CCRF-CEM
SK-MEL-5 = tested on: SK-MEL-5
UACC-257 = tested on: UACC-257
MDA-MB-435 = tested on: MDA-MB-435
OVCAR-5 = tested on: OVCAR-5
NCI-H460 = tested on: NCI-H460
UO-31 = tested on: UO-31
RXF 393 = tested on: RXF 393
HOP-92 = tested on: HOP-92
DU-145 = tested on: DU-145
TK-10 = tested on: TK-10
786-0 = tested on: 786-0
OVCAR-8 = tested on: OVCAR-8
MDA-MB-231 = tested on: MDA-MB-231
SF-539 = tested on: SF-539
M14 = tested on: M14
K562 = tested on: K562
OVCAR-3 = tested on: OVCAR-3
IGROV-1 = tested on: IGROV-1
NCI-H23 = tested on: NCI-H23
UACC-62 = tested on: UACC-62
ACHN = tested on: ACHN
SF-268 = tested on: SF-268
SK-MEL-28 = tested on: SK-MEL-28
T47D = tested on: T47D
PC-3 = tested on: PC-3
HCC 2998 = tested on: HCC 2998
RPMI-8226 = tested on: RPMI-8226
NCI-H226 = tested on: NCI-H226

Measured: GI50

Cc1cc(C)c2c(n1)S(=O)(=O)N(CCCN1CCN(c3cccc(Cl)c3)CC1)C(C(=O)c1ccc(Br)cc1)=C2O
16.7 µM: HCT-15
inactive: HT-29 25.4 µM | SK-MEL-2 20.5 µM | MOLT-4 10.6 µM | Hs-578T 29.6 µM | HCT-116 19.1 µM | OVCAR-4 11.4 µM | NCI/ADR-RES 18.8 µM | Malme-3M 24.7 µM | HOP-62 19.9 µM | MCF7 25.7 µM | CAKI-1 6.9 µM | SNB-19 20.9 µM | SW-620 34.1 µM | COLO 205 15.4 µM | U-251 21.3 µM | EKVX 19.3 µM | KM12 24.7 µM | A498 34.9 µM | SNB-75 10.3 µM | NCI-H522 20.5 µM | A549 22.1 µM | SR 13.4 µM | BT-549 42.3 µM | SN12C 11.1 µM | LOX IMVI 6.81 µM | SF-295 18.9 µM | HL-60 14.3 µM | SK-OV-3 29.5 µM | CCRF-CEM 19.9 µM | SK-MEL-5 15.4 µM | UACC-257 15.3 µM | MDA-MB-435 18.2 µM | OVCAR-5 36.2 µM | NCI-H460 8.91 µM | UO-31 7.1 µM | RXF 393 23.8 µM | HOP-92 20.7 µM | DU-145 26.4 µM | TK-10 17.7 µM | 786-0 12.1 µM | OVCAR-8 23.8 µM | MDA-MB-231 37.7 µM | SF-539 20.7 µM | M14 19.4 µM | K562 27.8 µM | OVCAR-3 16.8 µM | IGROV-1 27.2 µM | NCI-H23 33.5 µM | UACC-62 31.6 µM | ACHN 27.3 µM | SF-268 24.5 µM | SK-MEL-28 28.2 µM | T47D 33.4 µM | PC-3 22 µM

CCOc1ccc2c(c1)c(CC(=O)O)cn2C
> 100 µM: HCT-15
inactive: HT-29 > 100 µM | HCC 2998 > 100 µM | SK-MEL-2 > 100 µM | MOLT-4 > 100 µM | Hs-578T > 100 µM | HCT-116 > 100 µM | NCI/ADR-RES > 100 µM | Malme-3M > 100 µM | RPMI-8226 > 100 µM | HOP-62 > 100 µM | MCF7 > 100 µM | CAKI-1 > 100 µM | SNB-19 > 100 µM | COLO 205 > 100 µM | U-251 > 100 µM | EKVX > 100 µM | KM12 > 100 µM | NCI-H522 > 100 µM | A549 > 100 µM | SR > 100 µM | BT-549 > 100 µM | SN12C > 100 µM | LOX IMVI > 100 µM | SF-295 > 100 µM | HL-60 > 100 µM | SK-OV-3 > 100 µM | CCRF-CEM > 100 µM | UACC-257 > 100 µM | MDA-MB-435 > 100 µM | NCI-H460 > 100 µM | UO-31 > 100 µM | RXF 393 > 100 µM | HOP-92 45.6 µM | DU-145 > 100 µM | TK-10 > 100 µM | 786-0 > 100 µM | OVCAR-8 > 100 µM | MDA-MB-231 > 100 µM | NCI-H226 > 100 µM | SF-539 > 100 µM | M14 > 100 µM | K562 > 100 µM | OVCAR-3 > 100 µM | NCI-H23 > 100 µM | UACC-62 > 100 µM | ACHN > 100 µM | SF-268 > 100 µM | SK-MEL-28 > 100 µM | T47D > 100 µM | PC-3 > 100 µM
